Reference: patent US8859615B2, “Compounds, compositions and methods for reducing toxicity and treating or preventing diseases” (priority 2008, dated 2014)
Entries after “also recorded” stand apart in the source; their conditions may differ. Like-named read-outs stand apart in the source and are kept apart here.

How the values were obtained:
[1] = tested on: human colon carcinoma HCT-116 xenografts; assay: Compound D with Iso-Oxazole-Fludelone or Isodehydelone in nude mice bearing HCT-116 xenografts
[2] = tested on: CCRF-CEM human T-cell acute lymphoblastic leukemia cells; assay: In vitro cytotoxicity against CCRF-CEM (XTT / CCK-8 tetrazolium assay, 72 hr); settings: for IC50: Homo sapiens
[3] = tested on: Rat pheochromocytoma cells (PC12 cells); assay: Neurite outgrowth with NGF; assay type: cell-based; settings: 50 ng/mL NGF, 60 μM panaxytriol, 96 hr, vs NGF only
Method: Rat pheochromocytoma cells (PC12 cells) were treated with 50 ng/mL of nerve growth factor (NGF) and with 60 μM panaxytriol for 96 hr. The cells were then compared with a similarly prepared control, lacking panaxytriol. […] This finding confirms that panaxytriol is useful for treating or preventing a neurotrophic disorder.

[4] = tested on: human mammary carcinoma MX-1 cells; assay: In vitro drug combination (median-effect / combination index, DRI) against MX-1 cell growth (Tables 5, 5A); assay type: cell-based
Method: The data in Tables 2X, 3A-E, 4, 5, and 6 were obtained using the cell counting kit-8 (CCK-8) tetrazolium assay in a 96-well microplate. Five to seven concentrations of each compound in triplicate were used, and the IC50 values were determined by CompuSyn software automation (Chou T C. and Martin N. ComboSyn, Inc., 2006) based on the median-effect equation and plot (Chou T C. J. Theor. Biol. 59:235-276, 1976; Chou T C. Pharmacol. Rev. 58: 621-681, 2006). […] The r value defines the correlation coefficient of the median-effect plot which signifies the conformity to the mass-action law principle (Chou T C. J. Theor. Biol. 59:235-276, 1976; Chou T C. Pharmacol. Rev. 58:621-681, 2006). These parameters were determined by CompuSyn simulation (available at http://www.combosyn.com).
Efficacy of panaxytriol in combination with Fludelone (an illustrative tubulin-binding anticancer agent) was measured according to procedures described in more detail by Chou et al. (1984) Adv. Enz. Regul., 22:27-55, Chou et al. (1994) Nat'l Cancer Inst., 86:1517-1524, and Chou (2006) Pharmacological Reviews, […]:621-681. Software packages used for data analyses were CalcuSyn for Windows (Chou and Hayball., Multiple-drug dose effect analyzer and manual, Biosoft, Cambridge Place, Cambridge, U.K (1996)) and CompuSyn for Drug Combinations (Chou and Martin, Software for determination of synergism and antagonism and determination of IC50, ED50 and LD50, ComboSyn Inc., Paramus, N.J. (2005)). The entire contents of each of the above references are incorporated by reference in their entireties. […] DRI quantitates synergy as how many fold less of a dose is required to obtain a given level of effect for a combination of drugs versus the same effect for an individual component of the combination.

[5] = CCRF-CEM, 72 h, read-out: CCRF-CEM (IC50 in μM), Table 3A-2, CCK-8, 72-hr exposure
[6] = CCRF-CEM, 72 h, read-out: IC50 CCRF-CEM, Table 3D, CCK-8, 72-hr incubation
[7] = Table 5, fold dose reduction allowed in the Panaxytriol + Fludelone combination

Structure (SMILES)	effect on tumor size and body-weight ([1]; 10 mg/kg, Q3D×3, Q6D×3, i.v., FIGS. 4A-C)	effect of oral administration on toxicity of isodehydelone ([1]; FIG. 15, Compound (D) orally)	effect on therapeutic effect of Iso-oxazole-fludelone ([1]; FIGS. 4A, 4B)	anti-cancer activity in the in vitro cytotoxicity assay [2]	IC50 [2, 5] [µM]	IC50 [2, 6] [µM]	IC50 ([2]; CCRF-CEM, read-out: IC50 (in μM), cytotoxic potency against cancer cell line growth in vitro, Table 3C, cell line not given) [µM]	potency relative to Compound (A) in vitro ([2]; Table 3A)	analog is fold more potent (than Compound (A)) ([2]; Table 3A, CCRF-CEM)	neurite outgrowth [3]	IC50 ([2]; CCRF-CEM, 72 h, read-out: IC50 CCRF-CEM, Table 3, XTT, 72-hour) [µM]	IC50 ([4]; Homo sapiens, MX1, 72 h, read-out: Dose-effect parameter Dm (IC50)) [µM]	Dose-Reduction Index (DRI) at IC50 [4, 7]	Dose-Reduction Index (DRI) at IC75 [4, 7]	Dose-Reduction Index (DRI) at IC90 [4, 7]	Dose-Reduction Index (DRI) at IC95 [4, 7]	dose-reduction index (DRI) ([4]; panaxytriol + Fludelone combination, MX-1 cells)
C=C[C@H](O)C#CC#CC[C@H]1OC(C)(C)O[C@@H]1CCCCCCC [Compound (D)]	reduced the tumor size and increased the subject body-weight	reduces the toxicity and lethality of isodehydelone alone	significantly enhances the therapeutic effect of Iso-oxazole-fludelone	active against cancer	1.14	0.478	0.48	about 1.44 fold	is 1.68-fold								
C=C[C@@H](O)C#CC#CC[C@@H](O)[C@H](O)CCCCCCC [panaxytriol]					3.68	5.04 ± 0.86				enhanced neurite outgrowth; also recorded: significant neurite outgrowth	12.1 ± 1.57	3.19	2.66	2.12	1.70	1.46	1.46-2.7
